Consider 1 compound from patent publication US20210244686A1, “Novel Systems And Methods For The Therapeutic Use of Cannabinoids or Cannabinoid Analogs to Increase The Lipid Order of Cholesterol Containing Cell Membranes” (The Regents of the University of Colorado a body corporate, priority 2018, published 2021).

SMILES strings stand for the structures.

Holding throughout (format): cell-based, human
One assay has as its system SREBP2. Kind of assay: Western blot analysis of SREBP2 proteolytic processing. As to conditions: 24 hr. The source says: To further investigate the role of SREBP/SCAP signaling in the CBD response, the present inventors used western blot analysis to probe whether SREBP2 proteolytic processing is affected by CBD. […] The present inventors performed this assay with cells grown in LDL containing FBS (elevated cholesterol) and LDL depleted FBS (cholesterol starved). […] However, the inventors also detect evidence that although cholesterol precursors are accumulating in a CBD dependent manner, cholesterol itself appears to experience a net decrease in de novo synthesis. This is evident in the overall decrease in newly synthesized ^13C labeled cholesterol in CBD treated cells (FIG. 3B) and implies an apparent blockage in the final step of cholesterol biosynthesis, which is catalyzed by either DHCR24 or DHCR7 in the ER.
Cells were harvested at 24 hours by trypsinization and counted using a hemocytometer to determine cell concentration. 4×10^6 cells from each sample were lysed using 200 μL SDS lysis buffer (20 mM Tris pH 6.8, 4% SDS, 0.5% beta mercaptoethanol) and lysates were boiled for 5 minutes 95° C. and subsequently sonicated at 40% power 10 cycles 10 seconds on/off. 10 μL of lysate was loaded into each lane of a 12% SDS PAGE gel. Immunoblotting of protein transferred to nitrocellulose membrane was performed using anti-SREBP2 (Cayman Chemical #10007663).
(In western blotting, separated proteins are transferred to a membrane and probed.)

Assay [1] relates to SK-N-BE(2) cells. Kind of assay: RNAseq transcriptomics of CBD response. To be noted: 20 μM CBD. The procedure: In order to compare and contrast proteomic derived mechanistic components of the CBD response to that of transcriptomic components, the present inventors additionally performed RNAseq analysis of SK-N-BE(2) cells exposed to vehicle or 20 μM CBD at the time-points indicated in FIG. 1C. 5,643 differentially expressed genes were identified in the CBD response gene with a FDR<1%, which was further reduced to a list of 139 genes with an LFC>=1. […] While most of these annotations are supported by either the transcriptome or the proteome, dysregulation of cholesterol metabolism is supported by both. […] As a result of the agreement between proteomic and transcriptomic data, we focused our study thereafter on determining the role of cholesterol homeostasis in the CBD drug response.
Sequencing was performed on seven consecutive lanes. Median read counts per lane were ˜49,000 with a CV of ˜7%. Starting with 228 fastq files, each lane set was concatenated per condition. Using Trimmomtic-0.36, base pairs were trimmed if they dropped below a PHRED score of 15 within a sliding window of 4 bp. Remaining reads shorter than 35 base pairs were removed. Illumina adapter sequences were also clipped using Trimmomatic. […] Read alignment was accomplished using Tophat-2.0.13 and Cufflinks/Cuffdiff 2.2.1 was used for FPKM quantitation and differential expression analysis per time point.

Assay [2] relates to SK-N-BE(2) cells. Kind of assay: Lipidomics of total lipid abundance. The source says: To investigate the effect of CBD on cholesterol storage, the present inventors performed follow up experiments to determine the total cellular amounts of small molecule markers of cholesterol storage as a function of CBD exposure. The inventors detected accumulation of multiple species of cholesteryl esters with diverse chain length and degree of unsaturation in the acyl chain (FIG. 4A).
Since this esterification requires acyl CoA reactants, the inventors surveyed our dataset for evidence of fatty acid utilization.
Thus, the present inventors found multiple lines of evidence consistent with activation of cholesterol esterification in the CBD response. To further support the claim that CBD elicits cholesterol storage, the present inventors used live cell confocal microscopy of SK-N-BE(2) cells stained with both fluorescent cholesterol (22-NBD-Cholesterol) and the lipid droplet dye nile red (FIG. 4E) to quantify the number and size of lipid droplets. […] Altogether, these combined experiments highlight that the CBD response in cells includes activation of cholesterol esterification and storage.
Extraction of cholesterol, precursors, free fatty acids, cholesteryl esters, and phospho lipids were performed in the following manner. SK-N-BE(2) cells in 10 cm dishes were washed with 10 mL PBS twice and then cells were scraped and pelleted at 400 rcf for 2 minutes. Cell pellets were resuspended in 100% methanol at 4° C. and sonicate at 70% power in 10 pulses, 5 seconds on/5 seconds off. The resulting lysate was rotated for 60 minutes at room temperature, followed by centrifugation for 20 min at 4° C. (16,100 rcf). Subcellular fractionation of organelles from intact SK-N-BE(2) cells was done in the following manner to assess subcellular CBD distribution. Cells in 10 cm culture dishes were harvest by washing twice with 10 mL PBS at room temperature, followed by trypsinization using a cell culture grade Trypsin/EDTA solution (ThermoFisher). Trypsinized cells were quenched by addition of 2 mL 10% FBS containing DMEM and cells were pelleted by centrifugation for 2 min at 4° C. (200 rcf). Cell pellets were wash one time with 10 mL PBS, and resuspended in 1 mL Tween20 Buffer (1×PBS, 0.05% Tween20, 5 mM EDTA). This lysate was subjected to mechanical disruption using a 1 mL glass Dounce homogenizer, 10 full passes at 4° C. Nuclei was pelleted from homogenate by centrifugation for 5 min at 4° C. (2,000 rcf). Supernatant was separated and insoluble ER membranes were pelleted by centrifugation for 10 min at 4° C. (4,000 rcf). Supernatant was separated and insoluble plasma membranes were pelleted by centrifugation for 10 min at 4° C. (16,000 rcf). […]

As to `C=C(C)[C@@H]1CCC(C)=C[C@H]1c1c(O)cc(CCCCC)cc1O` [CBD, cannabidiol], the “magnitude of SREBP2 cleavage activation versus U18666A or Atorvastatin” value with SREBP2 (U18666A 10 μM, Atorvastatin 10 μM) was “lower in magnitude”. Also, in the assay with SREBP2 (both cholesterol starved and elevated cholesterol conditions), the SREBP2 cleavage entry is given as “dose dependent activation”. Moreover, the HMG-CR expression result with SK-N-BE(2) cells [1] is “transcriptional activation”. In the assay on SK-N-BE(2) cells [2] (CBD 20 μM vs vehicle), the cholesteryl esters result is reported as “accumulation”, the “free fatty acid levels” value is reported as “reduced” and the free phospholipid head-groups entry is recorded as “accumulation”. Moreover, the “phosphatidylcholine and phosphatidylethanolamine species abundance” value with SK-N-BE(2) cells [2] (CBD treated vs vehicle treated cells) is “reduced abundance”.
